Source: patent US20100267561A1, “HERBICIDAL PYRIDAZINONE DERIVATIVES” (priority 2007, published 2010)

Legend:
Assay in all cases: Test B pre-/postemergence plant response
Type in all cases: in vivo
[1] = test system: woolly cupgrass (Eriochloa villosa)
Outline: (§1)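 Seeds were sown and sprayed preemergence, while plants at 2 to 18 cm (1- to 4-leaf stage) got postemergence sprays. Compounds were formulated in a non-phytotoxic solvent mixture with surfactant. After 13 to 15 days in a greenhouse, injury was rated visually against untreated controls, 0 (no effect) to 100 (complete control).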

[2] = test system: catchweed bedstraw (Galium aparine); conditions: Preemergence, scale 0 to 100
Outline: as §1

[3] = test system: blackgrass (Alopecurus myosuroides); conditions: for Blackgrass plant response rating: 8 g ai/ha
Outline: as §1

[4] = test system: green foxtail (Setaria viridis); conditions: for Foxtail, Green plant response rating: 8 g ai/ha
Outline: as §1

[5] = test system: eastern black (E.B.) nightshade (Solanum ptycanthum); conditions: Preemergence
Outline: as §1

[6] = test system: downy bromegrass (Bromus tectorum); conditions: for Bromegrass, Downy plant response rating: 8 g ai/ha
Outline: as §1

[7] = test system: johnsongrass (Sorghum halepense); conditions: for Johnsongrass plant response rating: 8 g ai/ha
Outline: as §1

kochia (Kochia scoparia) = conditions: for Kochia plant response rating: 8 g ai/ha
Outline: as §1

corn (Zea mays) = conditions: for Corn plant response rating: 8 g ai/ha
Outline: as §1

[8] = test system: pigweed (Amaranthus retroflexus); conditions: for Pigweed plant response rating: 8 g ai/ha
Outline: as §1

[9] = test system: morningglory (Ipomoea coccinea); conditions: for Morningglory plant response rating: 8 g ai/ha
Outline: as §1

[10] = test system: common (oilseed) sunflower (Helianthus annuus); conditions: Preemergence
Outline: as §1

[11] = test system: giant foxtail (Setaria faberii); conditions: for Foxtail, Giant plant response rating: 8 g ai/ha
Outline: as §1

[12] = test system: surinam grass (Brachiaria decumbens); conditions: for Surinam Grass plant response rating: 8 g ai/ha
Outline: as §1

[13] = Postemergence, 16 g ai/ha, scale 0 to 100
[14] = Postemergence, 31 g ai/ha, scale 0 to 100, 0 no effect, 100 complete control
[15] = Postemergence, 62 g ai/ha, scale 0 to 100, 0 no effect, 100 complete control
[16] = Preemergence, 16 g ai/ha, scale 0 to 100 (0 no effect, 100 complete control)
[17] = Preemergence, 31 g ai/ha, 0 to 100 scale, 0 no effect, 100 complete control
[18] = Preemergence, 62 g ai/ha, scale 0 to 100
[19] = 16 g ai/ha, scale 0 to 100 (0 no effect, 100 complete control)
[20] = Preemergence, 31 g ai/ha, scale 0 to 100 (0 no effect, 100 complete control)

Cc1cc(-c2ccc(C(F)(F)F)c(F)c2)nn1-c1c(O)c(C(F)(F)F)nn(C)c1=O [Compound 44]
Cupgrass, Woolly plant response rating ([1]; 8 g ai/ha, postemergence, 0-100 scale): 98
Plant response rating, Cupgrass, Woolly [1, 13]: 98
Plant response rating, Cupgrass, Woolly [1, 14]: 100
Plant response rating, Cupgrass, Woolly [1, 15]: 100
Plant response rating, Cupgrass, Woolly [1, 16]: 0
Plant response rating, Cupgrass, Woolly [1, 17]: 0
Plant response rating, Cupgrass, Woolly [1, 18]: 100
Plant response rating, Galium ([2]; 62 g ai/ha): 0
Galium plant response rating ([2]; 8 g ai/ha): 0
Blackgrass plant response rating ([3]; postemergence, 0-100 scale): 85
Plant response rating, Blackgrass [3, 13]: 90
Plant response rating, Blackgrass [3, 14]: 98
Plant response rating, Blackgrass [3, 15]: 98
Plant response rating, Blackgrass [3, 16]: 100
Plant response rating, Blackgrass [3, 17]: 100
Plant response rating, Blackgrass [3, 18]: 100
Blackgrass plant response rating ([3]; Preemergence, scale 0 to 100): 90
Foxtail, Green plant response rating ([4]; postemergence, 0-100 scale): 75
Plant response rating, Foxtail, Green [4, 13]: 95
Plant response rating, Foxtail, Green [4, 14]: 95
Plant response rating, Foxtail, Green [4, 15]: 100
Plant response rating, Foxtail, Green [4, 16]: 98
Plant response rating, Foxtail, Green [4, 17]: 100
Plant response rating, Foxtail, Green [4, 18]: 100
Foxtail, Green plant response rating ([4]; Preemergence, scale 0 to 100): 40
Plant response rating, Nightshade, E. B. [5, 19]: 0
Plant response rating, Nightshade, E. B. ([5]; 31 g ai/ha, scale 0 to 100 (0 no effect, 100 complete control)): 0
Plant response rating, Nightshade, E. B. ([5]; 62 g ai/ha, scale 0 to 100): 55
Nightshade, E. B. plant response rating ([5]; 8 g ai/ha, scale 0 to 100): 0
Bromegrass, Downy plant response rating ([6]; postemergence, 0-100 scale): 40
Plant response rating, Bromegrass, Downy [6, 13]: 60
Plant response rating, Bromegrass, Downy [6, 14]: 70
Plant response rating, Bromegrass, Downy [6, 15]: 90
Plant response rating, Bromegrass, Downy [6, 16]: 20
Plant response rating, Bromegrass, Downy [6, 17]: 60
Plant response rating, Bromegrass, Downy [6, 18]: 85
Bromegrass, Downy plant response rating ([6]; Preemergence, scale 0 to 100): 0
Johnsongrass plant response rating ([7]; postemergence, 0-100 scale): 55
Plant response rating, Johnsongrass [7, 13]: 95
Plant response rating, Johnsongrass [7, 14]: 98
Plant response rating, Johnsongrass [7, 15]: 100
Plant response rating, Johnsongrass [7, 16]: 0
Plant response rating, Johnsongrass [7, 17]: 0
Plant response rating, Johnsongrass [7, 18]: 95
Johnsongrass plant response rating ([7]; Preemergence, scale 0 to 100): 0
Kochia plant response rating (kochia (Kochia scoparia); postemergence, 0-100 scale): 0
Plant response rating, Kochia (kochia (Kochia scoparia); [13]): 0
Plant response rating, Kochia (kochia (Kochia scoparia); [14]): 0
Plant response rating, Kochia (kochia (Kochia scoparia); [15]): 0
Plant response rating, Kochia (kochia (Kochia scoparia); [16]): 0
Plant response rating, Kochia (kochia (Kochia scoparia); [17]): 0
Plant response rating, Kochia (kochia (Kochia scoparia); [18]): 100
Kochia plant response rating (kochia (Kochia scoparia); Preemergence, scale 0 to 100): 0
Corn plant response rating (corn (Zea mays); postemergence, 0-100 scale): 85
Plant response rating, Corn (corn (Zea mays); [13]): 95
Plant response rating, Corn (corn (Zea mays); [14]): 95
Plant response rating, Corn (corn (Zea mays); [15]): 95
Plant response rating, Corn (corn (Zea mays); [16]): 55
Plant response rating, Corn (corn (Zea mays); [17]): 65
Plant response rating, Corn (corn (Zea mays); [18]): 85
Corn plant response rating (corn (Zea mays); Preemergence, scale 0 to 100): 0
Pigweed plant response rating ([8]; postemergence, 0-100 scale): 0
Plant response rating, Pigweed [8, 13]: 0
Plant response rating, Pigweed [8, 14]: 0
Plant response rating, Pigweed [8, 15]: 0
Plant response rating, Pigweed [8, 16]: 0
Plant response rating, Pigweed [8, 20]: 0
Plant response rating, Pigweed [8, 18]: 0
Pigweed plant response rating ([8]; Preemergence, scale 0 to 100): 0
Morningglory plant response rating ([9]; postemergence, 0-100 scale): 0
Plant response rating, Morningglory [9, 13]: 0
Plant response rating, Morningglory [9, 14]: 0
Plant response rating, Morningglory [9, 15]: 0
Plant response rating, Morningglory [9, 16]: 0
Plant response rating, Morningglory [9, 18]: 0
Morningglory plant response rating ([9]; Preemergence, scale 0 to 100): 0
Plant response rating, Sunflower [10, 19]: 0
Plant response rating, Sunflower ([10]; 62 g ai/ha, scale 0 to 100): 0
Sunflower plant response rating ([10]; 8 g ai/ha, scale 0 to 100): 0
Foxtail, Giant plant response rating ([11]; postemergence, 0-100 scale): 95
Plant response rating, Foxtail, Giant [11, 13]: 98
Plant response rating, Foxtail, Giant [11, 14]: 100
Plant response rating, Foxtail, Giant [11, 15]: 100
Plant response rating, Foxtail, Giant [11, 16]: 0
Plant response rating, Foxtail, Giant [11, 17]: 0
Plant response rating, Foxtail, Giant [11, 18]: 0
Foxtail, Giant plant response rating ([11]; Preemergence, scale 0 to 100): 0
Surinam Grass plant response rating ([12]; postemergence, 0-100 scale): 98
Plant response rating, Surinam Grass [12, 13]: 100
Plant response rating, Surinam Grass [12, 15]: 100
Plant response rating, Surinam Grass [12, 16]: 0
Plant response rating, Surinam Grass [12, 20]: 0
Plant response rating, Surinam Grass ([12]; Preemergence, 62 g ai/ha, 0 to 100 scale, 0 no effect, 100 complete control): 20
Surinam Grass plant response rating ([12]; Preemergence, scale 0 to 100): 0
